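Assay format: 96-well plates, 48-hour exposure. Here, GI50 denotes the concentration required for 50% inhibition of growth.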 Active and inactive are the calls of the source. Rule as the data show it: active = GI50 up to about 1.1 µM and inactive = higher. Where a SMILES comes first, the peptide text is derived from it. [ ]: non-standard residue; d: D form. The star is where a group is joined. Iva = CC[C](C)(N)C(=O)O; Boc = CC(C)(C)OC(=O)*; X54 = C1CCC(=NO*)C1
Tests used:
Assay in all cases: NCI tumour cell line growth inhibition, 48 h
UACC-62 = tested on: UACC-62
OVCAR-3 = tested on: OVCAR-3
NCI-H226 = tested on: NCI-H226
KM12 = tested on: KM12
SF-295 = tested on: SF-295
HL-60 = tested on: HL-60
U-251 = tested on: U-251
NCI/ADR-RES = tested on: NCI/ADR-RES
SN12C = tested on: SN12C
MDA-N = tested on: MDA-N
M14 = tested on: M14
MDA-MB-435 = tested on: MDA-MB-435
DU-145 = tested on: DU-145
T47D = tested on: T47D
Hs-578T = tested on: Hs-578T
Malme-3M = tested on: Malme-3M
MDA-MB-231 = tested on: MDA-MB-231
DMS-114 = tested on: DMS-114
KM-20L2 = tested on: KM-20L2

Measured: GI50

COc1ccc(/C=N/n2cnc3c(c2=O)SC(=C(C#N)C#N)N3c2ccccc2)cc1
inactive: UACC-62 > 100 µM | OVCAR-3 > 100 µM | NCI-H226 > 100 µM | KM12 > 100 µM | SF-295 74.5 µM | HL-60 > 100 µM | U-251 > 100 µM

CCOC(=O)/C(C#N)=C\c1ccc(N(CCC(=O)O)CCC(=O)O)c(I)c1
inactive: UACC-62 > 10 µM | NCI/ADR-RES > 10 µM | SN12C > 10 µM | MDA-N > 10 µM | M14 > 10 µM | NCI-H226 > 10 µM | MDA-MB-435 > 10 µM | KM12 > 10 µM | DU-145 > 10 µM | T47D > 10 µM | Hs-578T > 10 µM | Malme-3M > 10 µM | MDA-MB-231 > 10 µM | SF-295 > 10 µM | HL-60 > 10 µM

NC(Cc1ccccc1CP(=O)(O)O)C(=O)O (configuration not stated)
inactive: UACC-62 53 µM | OVCAR-3 > 100 µM | NCI/ADR-RES > 100 µM | SN12C > 100 µM | MDA-N > 100 µM | M14 > 100 µM | MDA-MB-435 > 100 µM | KM12 > 100 µM | DU-145 > 100 µM | T47D 35.9 µM | Hs-578T > 100 µM | MDA-MB-231 > 100 µM | SF-295 > 100 µM | HL-60 > 100 µM | U-251 > 100 µM

OC(c1ccc(Br)cc1)(c1cccs1)C1CC1 (configuration not stated)
inactive: UACC-62 16.4 µM | OVCAR-3 18.8 µM | NCI/ADR-RES 25.1 µM | MDA-N 20.7 µM | M14 21.1 µM | MDA-MB-435 18.1 µM | KM12 17.7 µM | DU-145 26.1 µM | T47D 22.8 µM | Hs-578T 22.3 µM | Malme-3M 20.5 µM | MDA-MB-231 18.3 µM | SF-295 21.6 µM | HL-60 20.8 µM | U-251 17.8 µM

CCC(C)(NC(=O)C(C)NC(=O)OC(C)(C)C)C(=O)NC(C)C(=O)NC(C)(CC)C(=O)ON=C1CCCC1 (configuration not stated) (Boc-A[Iva]A[Iva]-X54; configuration not given here)
inactive: UACC-62 > 100 µM | OVCAR-3 > 100 µM | NCI/ADR-RES > 100 µM | SN12C > 100 µM | MDA-N > 100 µM | M14 > 100 µM | NCI-H226 > 100 µM | MDA-MB-435 > 100 µM | KM12 > 100 µM | DU-145 > 100 µM | T47D > 100 µM | Hs-578T > 100 µM | Malme-3M > 100 µM | MDA-MB-231 > 100 µM | SF-295 > 100 µM | HL-60 > 100 µM | U-251 > 100 µM

COc1ncnc2c(Cl)c(C(O)c3ccccc3)c(Cl)cc12 (configuration not stated)
inactive: UACC-62 16.1 µM | OVCAR-3 43.8 µM | NCI/ADR-RES 28 µM | SN12C 28.1 µM | MDA-N 5.16 µM | M14 23.9 µM | MDA-MB-435 5.57 µM | KM12 26.7 µM | DU-145 60.4 µM | T47D 40.1 µM | Hs-578T 19.6 µM | Malme-3M 34.6 µM | MDA-MB-231 18.6 µM | SF-295 24.4 µM | HL-60 27.5 µM | U-251 27.3 µM

OCC(O)COc1ccc(Br)cc1 (configuration not stated)
inactive: DMS-114 > 100 µM | UACC-62 > 100 µM | OVCAR-3 > 100 µM | SN12C 60.3 µM | M14 > 100 µM | KM-20L2 > 100 µM | NCI-H226 > 100 µM | KM12 > 100 µM | Malme-3M > 100 µM | SF-295 > 100 µM | HL-60 > 100 µM | U-251 > 100 µM

Reference: ChEMBL document CHEMBL1201862, “PubChem BioAssay data set” (2004)
